Reference: patent US5840684A, “Glycopeptide antibiotic derivatives” (Eli Lilly and Company, priority 1995, dated 1998)
Values after ≈ are worked out from the molar mass of the structure shown.

Tests used:
[1] = system: Staphylococcus aureus 491; assay: broth micro-dilution MIC; type: cell-based
Description: (§1) The MIC's were determined using a standard broth micro-dilution assay.

[2] = system: Staphylococcus aureus SA1199; assay: broth micro-dilution MIC; type: cell-based
Description: as §1

[3] = system: Entercoccus faecium 180-1; assay: broth micro-dilution MIC; type: cell-based
Description: as §1

[4] = system: Staphylococcus aureus SA1199A; assay: broth micro-dilution MIC; type: cell-based
Description: as §1

[5] = system: Staphylococcus aureus 447; assay: broth micro-dilution MIC; type: cell-based
Description: as §1

[6] = system: Streptococcus pyogenes C203; assay: broth micro-dilution MIC; type: cell-based
Description: as §1

[7] = system: Staphylococcus aureus 446; assay: broth micro-dilution MIC; type: cell-based
Description: as §1

[8] = system: Entercoccus faecium 276; assay: broth micro-dilution MIC; type: cell-based
Description: as §1

[9] = system: Streptococcus pneumoniae P1; assay: broth micro-dilution MIC; type: cell-based
Description: (§2) The formula I compounds have in vitro and in vivo activity against Gram-positive pathogenic bacteria. The MIC's were determined using a standard broth micro-dilution assay.

[10] = system: Entercoccus faecium 180; assay: broth micro-dilution MIC; type: cell-based; conditions: Entercoccus faecium 180
Description: as §2

[11] = system: Staphylococcus haemolyticus 105; assay: broth micro-dilution MIC; type: cell-based
Description: as §2

[12] = system: Staphylococcus epidermidis 270; assay: broth micro-dilution MIC; type: cell-based
Description: as §2

[13] = system: Haemophilus influenzae RD; assay: broth micro-dilution MIC; type: cell-based; conditions: Haemophilus influenzae RD
Description: as §2

[14] = system: Staphylococcus haemolyticus 415; assay: broth micro-dilution MIC; type: cell-based
Description: as §2

[15] = system: Enterococcus gallinarum 245; assay: broth micro-dilution MIC; type: cell-based; conditions: Enterococcus gallinarum 245
Description: as §2

[16] = system: Entercoccus faecium 2041; assay: broth micro-dilution MIC; type: cell-based; conditions: Entercoccus faecium 2041
Description: as §2

[17] = system: Staphylococcus aureus S13E; type: cell-based
Description: as §1

[18] = system: Staphylococcus aureus SA1199B; type: cell-based
Description: as §1

[19] = system: vancomycin-susceptible enterococci; assay: broth micro-dilution, mean geometric MIC; type: cell-based, Enterococcus faecium and Enterococcus faecalis; conditions: enterococci, 24-hour incubation
[20] = system: Staphylococcus aureus 489; assay: broth micro-dilution MIC; type: cell-based
Description: as §1

[21] = system: vancomycin-resistant enterococci; assay: broth micro-dilution, mean geometric MIC; type: cell-based, Enterococcus faecium and Enterococcus faecalis; conditions: enterococci, 24-hour incubation
[22] = system: Staphylococcus aureus X778; assay: broth micro-dilution MIC; type: cell-based
Description: as §1

[23] = system: Staphylococcus aureus X400; assay: broth micro-dilution MIC; type: cell-based
Description: as §1

Structure (SMILES) | MIC [1] [µg/mL] | MIC [2] [µg/mL] | MIC [3] [µg/mL] | MIC [4] [µg/mL] | MIC [5] [µg/mL] | MIC [6] [µg/mL] | MIC [7] [µg/mL] | MIC [8] [µg/mL] | MIC [9] [µg/mL] | MIC [10] [µg/mL] | MIC [11] [µg/mL] | MIC [13] [µg/mL] | MIC [14] [µg/mL] | MIC [15] [µg/mL] | MIC [16] [µg/mL] | MIC [17] [µg/mL] | MIC [18] [µg/mL] | mean geometric MIC, Vancomycin Sensitive Strains [19] [µg/mL] | MIC [20] [µg/mL] | mean geometric MIC, Vancomycin Resistant Strains [21] [µg/mL] | other results
CNC(CC(C)C)C(=O)NC1C(=O)NC(CC(N)=O)C(=O)NC2C(=O)NC3C(=O)NC(C(=O)NC(C(=O)O)c4cc(O)cc(O)c4-c4cc3ccc4O)C(OC3CC(C)(N)C(O)C(C)O3)c3ccc(c(Cl)c3)Oc3cc2cc(c3OC2OC(CO)C(O)C(O)C2OC2CC(C)(NCc3cc4ccccc4s3)C(O)C(C)O2)Oc2ccc(cc2Cl)C1O (stereo not shown) [Compound 19] | 2 (≈ 1.15 µM) | 0.5 (≈ 0.288 µM) | ≤ 0.06 | ≤ 0.06 | 1 (≈ 0.575 µM) | ≤ 0.06 | 0.5 (≈ 0.288 µM) | ≤ 0.06 | ≤ 0.06 | 1 (≈ 0.575 µM) | 4 (≈ 2.3 µM) | 32 (≈ 18.4 µM) | 8 (≈ 4.6 µM) | ≤ 0.06 | ≤ 0.06 | ≤ 0.06 | 1 (≈ 0.575 µM) | 0.22 |  |  | MIC [12]: 2 µg/mL (≈ 1.15 µM)
CNC(CC(C)C)C(=O)NC1C(=O)NC(CC(N)=O)C(=O)NC2C(=O)NC3C(=O)NC(C(=O)NC(C(=O)O)c4cc(O)cc(O)c4-c4cc3ccc4O)C(OC3CC(C)(N)C(O)C(C)O3)c3ccc(c(Cl)c3)Oc3cc2cc(c3OC2OC(CO)C(O)C(O)C2OC2CC(C)(NCCCC3CCCC3)C(O)C(C)O2)Oc2ccc(cc2Cl)C1O (stereo not shown) [Compound 208] | 0.5 (≈ 0.294 µM) | 0.5 (≈ 0.294 µM) | ≤ 0.06 | ≤ 0.06 | 1 (≈ 0.587 µM) | ≤ 0.06 | 1 (≈ 0.587 µM) |  | ≤ 0.06 |  |  | 32 (≈ 18.8 µM) | 2 (≈ 1.17 µM) | 2 (≈ 1.17 µM) | ≤ 0.06 |  | 0.5 (≈ 0.294 µM) | 0.17 | 0.5 (≈ 0.294 µM) | 2.8 | MIC [12]: 0.5 µg/mL (≈ 0.294 µM)
CNC(CC(C)C)C(=O)NC1C(=O)NC(CC(N)=O)C(=O)NC2C(=O)NC3C(=O)NC(C(=O)NC(C(=O)O)c4cc(O)cc(O)c4-c4cc3ccc4O)C(OC3CC(C)(N)C(O)C(C)O3)c3ccc(c(Cl)c3)Oc3cc2cc(c3OC2OC(CO)C(O)C(O)C2OC2CC(C)(NCc3ccc(C#Cc4ccccc4)cc3)C(O)C(C)O2)Oc2ccc(cc2Cl)C1O (stereo not shown) [Compound 79] | 4 (≈ 2.24 µM) | 1 (≈ 0.561 µM) | ≤ 0.06 |  | 2 (≈ 1.12 µM) | ≤ 0.06 | 2 (≈ 1.12 µM) | ≤ 0.06 | ≤ 0.06 | ≤ 0.06 | 4 (≈ 2.24 µM) | 16 (≈ 8.98 µM) | 4 (≈ 2.24 µM) | ≤ 0.06 | ≤ 0.06 | 4 (≈ 2.24 µM) | 1 (≈ 0.561 µM) | 0.042 | 2 (≈ 1.12 µM) | 0.84 | MIC [22]: 2 µg/mL (≈ 1.12 µM); MIC [12]: 0.5 µg/mL (≈ 0.28 µM)
CNC(CC(C)C)C(=O)NC1C(=O)NC(CC(N)=O)C(=O)NC2C(=O)NC3C(=O)NC(C(=O)NC(C(=O)O)c4cc(O)cc(O)c4-c4cc3ccc4O)C(OC3CC(C)(N)C(O)C(C)O3)c3ccc(c(Cl)c3)Oc3cc2cc(c3OC2OC(CO)C(O)C(O)C2OC2CC(C)(NCCCCC#Cc3ccccc3)C(O)C(C)O2)Oc2ccc(cc2Cl)C1O (stereo not shown) [Compound 235] | 0.125 (≈ 0.0715 µM) |  | ≤ 0.06 | ≤ 0.06 |  | ≤ 0.06 | 0.5 (≈ 0.286 µM) | 0.125 (≈ 0.0715 µM) | ≤ 0.06 | 0.5 (≈ 0.286 µM) | 0.5 (≈ 0.286 µM) | 8 (≈ 4.57 µM) | 1 (≈ 0.572 µM) | 1 (≈ 0.572 µM) | ≤ 0.06 | 0.125 (≈ 0.0715 µM) | 0.5 (≈ 0.286 µM) |  | 0.5 (≈ 0.286 µM) | 2.4 | MIC [23]: 0.125 µg/mL (≈ 0.0715 µM); MIC [22]: 0.5 µg/mL (≈ 0.286 µM); MIC [12]: 0.5 µg/mL (≈ 0.286 µM)
CNC(CC(C)C)C(=O)NC1C(=O)NC(CC(N)=O)C(=O)NC2C(=O)NC3C(=O)NC(C(=O)NC(C(=O)O)c4cc(O)cc(O)c4-c4cc3ccc4O)C(OC3CC(C)(N)C(O)C(C)O3)c3ccc(c(Cl)c3)Oc3cc2cc(c3OC2OC(CO)C(O)C(O)C2OC2CC(C)(NCc3ccc(-c4ccc(C#N)cc4)cc3)C(O)C(C)O2)Oc2ccc(cc2Cl)C1O (stereo not shown) [Compound 231] | ≤ 0.06 | ≤ 0.06 | ≤ 0.06 | ≤ 0.06 |  | ≤ 0.06 |  | ≤ 0.06 | ≤ 0.06 | ≤ 0.06 | ≤ 0.06 | 32 (≈ 17.9 µM) | 0.5 (≈ 0.28 µM) | 0.5 (≈ 0.28 µM) | ≤ 0.06 | ≤ 0.06 | ≤ 0.06 | 0.11 | ≤ 0.06 | 1.7 | MIC [23]: ≤ 0.06 µg/mL; MIC [22]: ≤ 0.06 µg/mL
CNC(CC(C)C)C(=O)NC1C(=O)NC(CC(N)=O)C(=O)NC2C(=O)NC3C(=O)NC(C(=O)NC(C(=O)O)c4cc(O)cc(O)c4-c4cc3ccc4O)C(OC3CC(C)(N)C(O)C(C)O3)c3ccc(c(Cl)c3)Oc3cc2cc(c3OC2OC(CO)C(O)C(O)C2OC2CC(C)(NCc3ccc4cc(C)ccc4c3)C(O)C(C)O2)Oc2ccc(cc2Cl)C1O (stereo not shown) [Compound 189] | ≤ 0.06 | 0.5 (≈ 0.286 µM) | ≤ 0.06 | ≤ 0.06 | 0.5 (≈ 0.286 µM) | ≤ 0.06 | 0.5 (≈ 0.286 µM) |  | ≤ 0.06 |  | 1 (≈ 0.573 µM) | 32 (≈ 18.3 µM) | 1 (≈ 0.573 µM) | 1 (≈ 0.573 µM) | ≤ 0.06 | 0.5 (≈ 0.286 µM) | 1 (≈ 0.573 µM) | 0.10 | 1 (≈ 0.573 µM) | 2.4 | 
CNC(CC(C)C)C(=O)NC1C(=O)NC(CC(N)=O)C(=O)NC2C(=O)NC3C(=O)NC(C(=O)NC(C(=O)O)c4cc(O)cc(O)c4-c4cc3ccc4O)C(OC3CC(C)(N)C(O)C(C)O3)c3ccc(c(Cl)c3)Oc3cc2cc(c3OC2OC(CO)C(O)C(O)C2OC2CC(C)(NCCCc3ccc(OC)cc3)C(O)C(C)O2)Oc2ccc(cc2Cl)C1O (stereo not shown) [Compound 175] | 0.5 (≈ 0.287 µM) | ≤ 0.06 | ≤ 0.06 | 0.5 (≈ 0.287 µM) | 1 (≈ 0.574 µM) | 0.5 (≈ 0.287 µM) | 1 (≈ 0.574 µM) | ≤ 0.06 | 0.5 (≈ 0.287 µM) | 1 (≈ 0.574 µM) | 2 (≈ 1.15 µM) | 16 (≈ 9.19 µM) | 4 (≈ 2.3 µM) | 4 (≈ 2.3 µM) | ≤ 0.06 |  | ≤ 0.06 | 0.22 |  | 9.5 | MIC [22]: 0.5 µg/mL (≈ 0.287 µM); MIC [12]: 0.5 µg/mL (≈ 0.287 µM)
CNC(CC(C)C)C(=O)NC1C(=O)NC(CC(N)=O)C(=O)NC2C(=O)NC3C(=O)NC(C(=O)NC(C(=O)O)c4cc(O)cc(O)c4-c4cc3ccc4O)C(OC3CC(C)(N)C(O)C(C)O3)c3ccc(c(Cl)c3)Oc3cc2cc(c3OC2OC(CO)C(O)C(O)C2OC2CC(C)(NCCCCC3CCCCC3)C(O)C(C)O2)Oc2ccc(cc2Cl)C1O (stereo not shown) [Compound 205] | 0.5 (≈ 0.289 µM) | 1 (≈ 0.578 µM) | ≤ 0.06 | ≤ 0.06 | 0.5 (≈ 0.289 µM) | ≤ 0.06 | 2 (≈ 1.16 µM) | 0.5 (≈ 0.289 µM) | ≤ 0.06 | 0.5 (≈ 0.289 µM) | 1 (≈ 0.578 µM) | 16 (≈ 9.24 µM) | 1 (≈ 0.578 µM) | 1 (≈ 0.578 µM) | 0.25 (≈ 0.144 µM) | 0.5 (≈ 0.289 µM) | 0.5 (≈ 0.289 µM) | 0.036 | 0.5 (≈ 0.289 µM) | 1 | MIC [23]: 0.5 µg/mL (≈ 0.289 µM); MIC [22]: 0.5 µg/mL (≈ 0.289 µM)
